In patent publication US20060067938A1, “Methods for the treatment of osteoarthritis and compositions thereof” (priority 2001, published 2006):
Values joined by “and” are separate entries in the source; they are usually repeats but may differ in a detail not shown here. Equal values may be shown once.

Columns and labels:
[1] = tested on: Collagenase-3 (MMP-13) mRNA; assay: Real time PCR, fold induction of Collagenase-3 (MMP-13) mRNA in human articular chondrocytes; assay type: cell-based; conditions: chondrocytes from one OA patient
Procedure: (§1) Chondrocytes were isolated from 2 normal and 2 OA patents. Cells alone or those over expressing the dominant negative form of Akt (retroviral mediated gene transfer) were treated with IL-1 beta, OSM or IL-1 beta+OSM with and without the PI3K inhibitor LY294002. RNA was isolated and the levels of Agg-1, Col-3 mRNA were measured by real time PCR. All treatments in four different donors were done in duplicate.
(§2) Total RNA was isolated from pooled duplicate 96-well plates using Qiagen RNeasy 96 kit (Qiagen, Valencia, Calif.) according to the manufacturer's instructions. The optional on-column Dnase I digestion was employed to eliminate contaminating genomic DNA. First strand cDNA was synthesized using random primers with the High-Capacity cDNA Archive kit (PE Applied Biosystems, Foster City, Calif.) in a 100 ul reaction volume.
(§3) Real time PCR was performed in a 384-well format on the ABI Prism 7900HT Sequence Detection System (Applied Biosystems, Foster City, Calif.) using SYBR Green PCR Master Mix (Applied Biosystems, Foster City, Calif.). The 20 ul reaction contained 5 ul cDNA, 200 nM forward and reverse primers, and SYBR Green PCR Master Mix. The default cycling program (95° C. for 10′ and 40 cycles of 95° C., 15″, 60° C., 1′) was followed by a slow ramping step by which a melting curve is generated to confirm the specificity of the PCR product and the absence of primer dimers.
(§4) Amplification of GAPDH was used to standardize the amount of sample cDNA added to the reaction. Changes in gene expression were calculated using the Comparative Ct method which makes use of a calibrator sample. This is the sample with which all others will be compared and whose value is therefore set to 1. All other values are therefore expressed relative to the calibrator. The retroviral vector containing no cDNA insert represents the calibrator sample. The amount of target, relative to the calibrator is calculated according to the formula 2^□□CT as outlined in ABI User Bulletin #2 (PE Applied Biosystems, Foster City, Calif.).

Aggrecanase-1 mRNA = assay: Real time PCR, fold induction of Aggrecanase-1 mRNA in human articular chondrocytes; assay type: cell-based; conditions: chondrocytes from one OA patient
Procedure: as §1, §2, §3, §4

[2] = tested on: Aggrecanase-1 (AGG-1) mRNA; assay: RT-PCR of AGG-1 mRNA in PDGF stimulated primary human chondrocytes; assay type: cell-based; conditions: primary human chondrocytes (non-OA joints)
Procedure: (§5) cDNA from Isolated Normal and Osteoarthritic Cartilage: A quantity of 1 μg total Isolated Normal or Osteoarthritic Cartilage RNA is treated with DNase (Ambion, Austin, Tex.) in DNase buffer (Ambion, Austin, Tex. in a quantity sufficient to make 10 μl total reaction volume and heated at 37° C. for 30 minutes. The DNase enzyme is inactivated by adding EDTA and heating at 75° C. for 5 min. cDNA is then synthesized from the reaction mixture above using Oligo dT12-18 with the Superscript Preamplification System (Life Technologies, Rockville, Md.). The final reaction volume is then adjusted to 300 μl. Cyclophilin RT-PCR is performed on each sample to allow comparative normalized PI3K, PKB, AGG-1, or COL-3 gene quantitation. Reverse transcriptase polymerase chain reaction (RT-PCR) for cyclophilin is first performed using 3 μl template utilizing the Expand Long PCR System (Roche Biochemicals, Indianapolis, Ind.). Cyclophilin RT-PCR is performed on each sample for 28 cycles to prevent saturation of the PCR products, whereas 35-40 cycles is necessary to detect less abundant genes. Loading dye is added to the 50 μl RT-PCR reaction mix, 10 μl of the dyed RT-PCR reaction mix is loaded onto a 4-20% TBE gradient gel (BioRad, Hercules, Calif.)) and separated at 200V for 45 min. The gel is stained in 1×TBE (Sigma, St. Louis, Mo.) solution containing SYBR green (1:10,000) (Molecular Probes, Eugene, Oreg.) for 1 hour and then scanned on the Storm 860—Blue Fluorescence/Chemifluorescence scanner (Molecular Dynamics, Division of Amersham Pharmacia, Piscataway, N.J.). Individual bands are quantitated using ImageQuant software (Molecular Dynamics, Division of Amersham Pharmacia, Piscataway, N.J.). The fluorescence value determined for each PCR band representing a particular gene is normalized against the fluorescence value for the cyclophilin band in the same donor sample.
(§6) Induction or Inhibition of PI3KI3K/PKB In Cultured Chondrocytes: In all studies described below chondrocytes were cultured in DMEM medium with or without 10% Fetal Bovine Serum (Invitrogen Life Technologies, Carlsbad, Calif.). […]

[3] = tested on: PI3K/PKB pathway (phospho-PKB); assay: Western blot of chondrocyte lysates probed with anti-phospho-PKB (activation of PI3K/PKB pathway by PDGF); assay type: cell-based; conditions: primary human chondrocytes (non-OA joints), two samples
Procedure: (§7) Induction or Inhibition of PI3KI3K/PKB In Cultured Chondrocytes: In all studies described below chondrocytes were cultured in DMEM medium with or without 10% Fetal Bovine Serum (Invitrogen Life Technologies, Carlsbad, Calif.). Cultured chondrocyte cells are incubated overnight in serum free medium (DMEM) and then treated, as one of the following types of samples, 1) control samples, by incubating the cultures for 24 hour in serum free medium (DMEM) 2) induced samples, by incubating the cultures for 24 hours in serum free medium containing the PI3K/PKB inducer PDGF-BB (Invitrogen—Life Technologies Carlsbad, Calif.) or 3) PI3K/PKB inhibited samples, by pre-incubating the samples for 1 hour with the PI3K/PKB inhibitor LY294002 (Sigma, St. Louis, Mo.) and then incubating the cultures for 24 hours in serum free medium (DMEM) containing the PDGF-BB. FIG. 3 depicts activation of PI3K/PKB expression by PDGF in primary human chondrocytes. FIG. 4 depicts LY249002 (2-(4-morpholinyl)-8-phenyl-4H-1-benzopyran-4-one) inhibition of PDGF activated PI3K/PKB expression in primary human chondrocytes.
Western Blotting—Cells are incubated in serum free medium (DMEM) overnight, and then incubated for 10 minutes in fresh serum free media containing PDGF-BB (50 ng/ml)+/−LY294002 (20 μM). Cells are washed in ice cold PBS, scraped and sonicated in ice cold lysis buffer containing 50 mM Tris pH 7.4, 1% NP-40, 0.25% Na deoxycholate, 150 mM NaCl, 1 mM EGTA, 1 mM PMSF, aprotinin, leupeptin, and pepstatin (all at 1 μg/ml 1 mM Na vanadate, 1 mM NaF, and 1 μM microcystin) (Sigma, St Louis, Mo.). The protein concentration of the lysate is determined using the micro bicinchoninic acid assay (Pierce, Rockford, Ill.) and 20 μg lysate is run per lane for phospho-PKB and phospho-forkhead and 5 μg for anti-His antibody [rabbit anti-phospho-PKB-Ser473 NEB, rabbit anti-phospho-FKHRL1-Thr32 NEB, mouse anti penta-His (Qiagen, Valencia, Calif.)]. Peroxidase labeled secondary antibodies are purchased from Jackson Laboratories (Bar, Harbor, Me.). Blots are visualized with ECL reagent (Amersham, Piscataway, N.J.). […]

[4] = tested on: Collagenase-3 (COL-3) mRNA; assay: RT-PCR of COL-3 mRNA in PDGF stimulated primary human chondrocytes; assay type: cell-based; conditions: primary human chondrocytes (non-OA joints)
Procedure: as §5, §6

[5] = tested on: PKB pathway (phospho-FKHRL1); assay: Western blot of chondrocyte lysates probed with anti-phospho-FKHRL1; assay type: cell-based; conditions: PDGF 50 ng/ml alone; primary human chondrocytes (non-OA joints); two samples
Procedure: as §7, with “FIG. 3 depicts activation of PI3K/PKB expression by PDGF in primary human chondrocytes. FIG. 4 depicts LY249002 (2-(4-morpholinyl)-8-phenyl-4H-1-benzopyran-4-one) inhibition of PDGF activated PI3K/PKB expression in primary human chondrocytes.” left out
Western Blotting—Cells are incubated in serum free medium (DMEM) overnight, and then incubated for 10 minutes in fresh serum free media containing PDGF-BB (50 ng/ml)+/−LY294002 (20 μM). […] The protein concentration of the lysate is determined using the micro bicinchoninic acid assay (Pierce, Rockford, Ill.) and 20 μg lysate is run per lane for phospho-PKB and phospho-forkhead and 5 μg for anti-His antibody [rabbit anti-phospho-PKB-Ser473 NEB, rabbit anti-phospho-FKHRL1-Thr32 NEB, mouse anti penta-His (Qiagen, Valencia, Calif.)]. […]

[6] = tested on: Collagenase-3 protein secretion; assay: ELISA for COL-3 protein secretion in chondrocyte supernatants; assay type: cell-based, human; conditions: for Collagenase-3 protein in supernatant: 24 hr, control 2491 ± 147
Procedure: ELISA for COL-3—Chondrocyte culture cells are incubated in serum free media (DMEM) overnight, and then incubated for 1 hour in fresh serum free media without or with (50 ng/ml) PDGF-BB (Invitrogen-Life Technologies, Carlsbad, Calif.) is added to each well and incubated for an additional 24 hours. Cell culture supernatants are collected and the levels of COL-3 protein are determined for each treatment using Amersham (Piscataway, N.J.) human collagenase-3 ELISA. FIG. 5 depicts the ELISA of COL-3 protein secretion and inhibition by LY249002. Chondrocyte cells isolated as described above are incubated in serum free media overnight, and then incubated for 1 hour in fresh serum free medium (DMEM) with or without LY294002. Then 50 ng/ml PDGF-BB (Sigma, St. Louis, Mo.) is added to each well and incubated for an additional 24 hours. Chondrocyte cell culture supernatants are collected and the levels of COL-3 protein are determined for each treatment using the commercially available Amersham (Piscataway, N.J.) human collagenase-3 ELISA based assay.

[7] = PDGF 50 ng/ml + LY294002 20 μM, listed as LY2490002
[8] = inhibitor + IL-1 + Oncostatin M
[9] = inhibitor + IL-1 + Oncostatin M, listed as LY 294002

## oncostatin M
[1]; inducer alone, untreated 1
  Fold Induction of mRNA, Collagenase-3: 63 fold
Aggrecanase-1 mRNA; inducer alone, untreated 2
  Fold Induction of mRNA, Aggrecanase-1: 221 fold

## platelet-derived growth factor [PDGF]
[2]; PDGF 50 ng/ml alone
  Aggrecanase-1 gene expression (PCR amplicon gel signal): 418
[3]; PDGF 50 ng/ml alone
  Anti Phospho-PKB western blot signal: 17940 and 22369
[4]; PDGF 50 ng/ml alone
  Collagenase-3 gene expression (PCR amplicon gel signal): 1242
[5]
  Anti-Phospho-FKHRL1 western blot signal: 15838 and 16507
[1]; inducer alone, untreated 1
  Fold Induction of mRNA, Collagenase-3: 36 fold
Aggrecanase-1 mRNA; inducer alone, untreated 2
  Fold Induction of mRNA, Aggrecanase-1: 10 fold

## O=c1cc(N2CCOCC2)oc2c(-c3ccccc3)cccc12 [LY294002, 2-(4-morpholinyl)-8-phenyl-4H-1-benzopyran-4-one]
[6]; 1 μM LY294002 in the presence of PDGF 50 ng/ml
  Collagenase-3 protein in supernatant: 2374 ± 58 pg/mL
[6]; 5 μM LY294002 in the presence of PDGF 50 ng/ml
  Collagenase-3 protein in supernatant: 1555 ± 104 pg/mL
[6]; 20 μM LY294002 in the presence of PDGF 50 ng/ml
  Collagenase-3 protein in supernatant: 342 ± 8 pg/mL
[6]; PDGF stimulated primary human chondrocytes
  Secretion of COL-3 protein (in words): inhibits secretion of COL-3 protein
[2]; PDGF 50 ng/ml + LY294002 20 μM
  Aggrecanase-1 gene expression (PCR amplicon gel signal): 0
[2]; [7]
  Aggrecanase-1 gene expression (PCR amplicon gel signal): inhibits the downstream production of mRNA for AGG-1 and COL-3
[3]; PDGF 50 ng/ml + LY294002 20 μM
  Anti Phospho-PKB western blot signal: 4706 and 3408
[3]; [7]
  Anti Phospho-PKB western blot signal: decreases PDGF induced activation of PKB
[4]; PDGF 50 ng/ml + LY294002 20 μM
  Collagenase-3 gene expression (PCR amplicon gel signal): 302
[4]; [7]
  Collagenase-3 gene expression (PCR amplicon gel signal): inhibits the downstream production of mRNA for AGG-1 and COL-3
[1]; [8]
  Fold Induction of mRNA, Collagenase-3: blocked
[1]; [9]
  Fold Induction of mRNA, Collagenase-3: 19 fold
[1]; inhibitor + IL-1
  Fold Induction of mRNA, Collagenase-3: 5 fold
[1]; inhibitor + Oncostatin M
  Fold Induction of mRNA, Collagenase-3: 10 fold
[1]; inhibitor + PDGF
  Fold Induction of mRNA, Collagenase-3: 2 fold
Aggrecanase-1 mRNA; [8]
  Fold Induction of mRNA, Aggrecanase-1: blocked
Aggrecanase-1 mRNA; [9]
  Fold Induction of mRNA, Aggrecanase-1: 49 fold
Aggrecanase-1 mRNA; inhibitor + IL-1
  Fold Induction of mRNA, Aggrecanase-1: 22 fold
Aggrecanase-1 mRNA; inhibitor + Oncostatin M
  Fold Induction of mRNA, Aggrecanase-1: 45 fold
Aggrecanase-1 mRNA; inhibitor + PDGF
  Fold Induction of mRNA, Aggrecanase-1: 2 fold

## Interleukin-1 [IL-1]
[1]; inducer alone, untreated 1
  Fold Induction of mRNA, Collagenase-3: 150 fold
Aggrecanase-1 mRNA; inducer alone, untreated 2
  Fold Induction of mRNA, Aggrecanase-1: 180 fold
